Measured values reported in ChEMBL document CHEMBL4651402, “Screening of ~5500 FDA-approved drugs and clinical candidates for anti-SARS-CoV-2 activity” (2021).
pIC50: −log10 of the molar value.

What was measured:
SARS-CoV-2 [1] = experiment: microbe, parasite or virus in culture; type: functional, organism-based, Chlorocebus sabaeus, Vero C1008; conditions: Severe acute respiratory syndrome coronavirus 2, Vero C1008, 48 h; for pIC50: read-out: IC50; for IC50: read-out: pIC50 (converted)
in vitro = conditions: chlorocebus sabaeus, Vero E6 (Vero C1008) cells
SARS-CoV-2 [2] = experiment: microbe, parasite or virus in culture; conditions: Severe acute respiratory syndrome coronavirus 2, Vero C1008, 48 h; for IC50: read-out: pIC50 (converted)

SMILES | pIC50 (SARS-CoV-2 [1]) | IC50 (SARS-CoV-2 [1]) | CC50 at 48 h (in vitro; CC50) | CC50 at 48 h (in vitro; pCC50) | pIC50 (SARS-CoV-2 [2]) | IC50 (SARS-CoV-2 [2])
CN(C)CC/C=C1\c2ccccc2OCc2c1oc1ccccc21 | < 4.00 | > 100 µM | 12.2 µM | 12 µM | 4.74 | 18.2 µM
CC(CN(C)C)CN1c2ccccc2Sc2ccccc21 (centres undefined) | < 4.60 | > 25.1 µM | 21.4 µM | 21.4 µM | 4.76 | 17.4 µM
CN1CCC[C@@H](CN2c3ccccc3Sc3ccccc32)C1 | < 4.00 | > 100 µM | 11.8 µM | 11.7 µM | < 4.70 | > 20 µM
OC(Cn1cncn1)(Cn1cnc(/C=C/c2ccc(OCC(F)(F)C(F)F)cc2)n1)c1ccc(F)cc1F (centres undefined) | < 4.00 | > 100 µM | 25.7 µM | 25.7 µM | < 4.00 | > 100 µM
CC(=O)NC1(c2ccccc2)CCN(CCC(CN(C)C(=O)c2ccccc2)c2ccc(Cl)c(Cl)c2)CC1 (centres undefined) | < 4.00 | > 100 µM | 23.4 µM | 23.4 µM | < 4.00 | > 100 µM
CC(C)[C@H](C(=O)Nc1ccc(C(=O)NO)cc1)c1ccccc1 [AR-42] |  |  | 0.851 µM | 0.851 µM | < 4.70 | > 20 µM
O=C1CCc2ccc(OCCCCN3CCN(c4cccc(Cl)c4Cl)CC3)cc2N1 [ARIPIPRAZOLE] |  |  | 11.4 µM | 11.2 µM |  | 
COc1ccc(CCN2CCC(Nc3nc4ccccc4n3Cc3ccc(F)cc3)CC2)cc1 [ASTEMIZOLE] |  |  | 7.5 µM | 7.41 µM |  | 
CC[C@@H]1C(=O)N(C)c2cnc(Nc3ccc(C(=O)NC4CCN(C)CC4)cc3OC)nc2N1C1CCCC1 [BI-2536] |  |  | 0.603 µM | 0.603 µM |  | 
CC1(C)S[C@@H]2[C@H](NC(=O)C(C(=O)O)c3ccccc3)C(=O)N2[C@H]1C(=O)O (some centres undefined) [CARBENICILLIN] | < 4.70 | > 20 µM | > 20 µM | > 20 µM |  | 
CO/N=C(\C(=O)N[C@@H]1C(=O)N2C(C(=O)OC(C)OC(C)=O)=C(COC(N)=O)CS[C@H]12)c1ccco1 (some centres undefined) [CEFUROXIME AXETIL] | < 4.70 | > 20 µM | > 20 µM | > 20 µM |  | 
CN(C)CCCN1c2ccccc2CCc2ccc(Cl)cc21 [CLOMIPRAMINE] |  |  | 16 µM | 15.8 µM |  | 
O=C1OC2(c3ccc(O)cc3Oc3cc(O)ccc32)c2ccccc21 [FLUORESCEIN] | < 6.51 | > 0.309 µM | > 20 µM | > 20 µM |  | 
OCCN1CCN(CCCN2c3ccccc3Sc3ccc(C(F)(F)F)cc32)CC1 [FLUPHENAZINE] |  |  | 7.76 µM | 7.76 µM |  | 
CCC(C)n1ncn(-c2ccc(N3CCN(c4ccc(OCC5COC(Cn6cncn6)(c6ccc(Cl)cc6Cl)O5)cc4)CC3)cc2)c1=O (centres undefined) [ITRACONAZOLE] |  |  | > 100 µM | > 100 µM | < 4.00 | > 100 µM
CCOC(=O)C1=C(C)NC(C)=C(C(=O)OCC)C1c1ccccc1/C=C/C(=O)OC(C)(C)C [LACIDIPINE] |  |  | 7.24 µM | 7.24 µM | < 5.00 | > 10 µM
CN(C)C(=O)C(CCN1CCC(O)(c2ccc(Cl)cc2)CC1)(c1ccccc1)c1ccccc1 [LOPERAMIDE] |  |  | ~22 µM | ~21.9 µM |  | 
CCOC(=O)O[C@]1(C(=O)OCCl)CC[C@H]2[C@@H]3CCC4=CC(=O)C=C[C@]4(C)[C@H]3[C@@H](O)C[C@@]21C [LOTEPREDNOL ETABONATE] | < 4.70 | > 20 µM | > 20 µM | > 20 µM |  | 
CCOc1cc2ncc(C#N)c(Nc3ccc(OCc4ccccn4)c(Cl)c3)c2cc1NC(=O)/C=C/CN(C)C [NERATINIB] | < 5.00 | > 10 µM | > 10 µM | > 10 µM |  | 
CSc1ccc2c(c1)N(CCC1CCCCN1C)c1ccccc1S2 (centres undefined) [THIORIDAZINE] |  |  | ~6.38 µM | ~6.31 µM |  | 
CCOC(=O)c1c(CSc2ccccc2)n(C)c2cc(Br)c(O)c(CN(C)C)c12 [UMIFENOVIR] | < 4.00 | > 100 µM |  |  | < 4.00 | > 100 µM
CCC1=C[C@@H]2CN(C1)Cc1c([nH]c3ccccc13)[C@@](C(=O)OC)(c1cc3c(cc1OC)N(C)[C@H]1[C@@](O)(C(=O)OC)[C@H](OC(C)=O)[C@]4(CC)C=CCN5CC[C@]31[C@@H]54)C2 [VINORELBINE] | < 4.70 | > 20 µM | 14.5 µM | 14.5 µM |  | 
